Assay results: publication PMC9691366, “Modulating the pharmacokinetic profile of Actinium-225-labeled macropa-derived radioconjugates by dual targeting of PSMA and albumin” (Theranostics, 2022)
Marks after values point to notes of the source that are not given here.

Key:
[1] = assay type: physicochemical; conditions: pH 7.4
Experimental: 1-Octanol/water distribution coefficients (log D) were determined by applying the shake-flask-method. 20 µL of the reaction mixture were poured into 580 µL of 5xPBS (pH 7.4). Afterwards, 600 µL of 1-octanol was added and the two-phase-system was vigorously stirred for 5 min. Then, the samples were centrifuged, the phases were separated and the count rates were measured using ISOMED2160 sodium iodide crystal detector (at least 4 h after phase separation due to initial decay products).

[2] = over 7 days
Experimental: The final conjugates mcp-M-alb-PSMA and mcp-D-alb-PSMA were successfully radiolabeled with ^225Ac at a concentration down to 10^-6 M with radiochemical conversions of higher than 99% within 15 min at room temperature and a resulting molar activity of 1 MBq/nmol. The radiolabeled actinium complexes [^225Ac]Ac-mcp-M-alb-PSMA and [^225Ac]Ac-mcp-D-alb-PSMA were characterized regarding decomplexation (by radio-TLC) and degradation (by radio-HPLC). […] Log D values for [^225Ac]Ac-mcp-M-alb-PSMA and [^225Ac]Ac-mcp-D-alb-PSMA were determined at pH 7.4 to be ‑2.4 and -1.7, respectively.
^225Ac was commercially supplied by ITM as [^225Ac]AcCl3. Radiolabeling was performed using 100 kBq ^225Ac, the respective ligand stem solution (10^-2 M - 10^-6 M) to reach the required ligand concentration (10^-3 M - 10^-7 M), the necessary amount of 2,5-dihydroxybenzoic acid (final concentration 0.1 M) and a volume of 0.2 M NH4OAc (pH 6) to adjust a total volume of 100 µL. […]
Once the labeling reaction was finished, samples were taken out and the ^225Ac-radioconjugates were analyzed via TLC (two systems: 1 - 0.05 M EDTA (pH 7) on silica plates; 2 - 70/30 acetonitrile/H2O on alugram RP-CN plates) and analytical HPLC on a Jasco HPLC system with GABI analyzer (Elysia Raytest) for gamma detection on a Phenomenex Phenyl-Hexyl column in water/acetonitrile (0.1% TFA each).

[3] = molecular target: PSMA (Homo sapiens, UniProt Q04609); test: Saturation binding studies on PSMA-positive LNCaP cells; conditions: 95% confidence interval in brackets; for Kd: on ice
PSMA, sequence (Q04609 whole entry): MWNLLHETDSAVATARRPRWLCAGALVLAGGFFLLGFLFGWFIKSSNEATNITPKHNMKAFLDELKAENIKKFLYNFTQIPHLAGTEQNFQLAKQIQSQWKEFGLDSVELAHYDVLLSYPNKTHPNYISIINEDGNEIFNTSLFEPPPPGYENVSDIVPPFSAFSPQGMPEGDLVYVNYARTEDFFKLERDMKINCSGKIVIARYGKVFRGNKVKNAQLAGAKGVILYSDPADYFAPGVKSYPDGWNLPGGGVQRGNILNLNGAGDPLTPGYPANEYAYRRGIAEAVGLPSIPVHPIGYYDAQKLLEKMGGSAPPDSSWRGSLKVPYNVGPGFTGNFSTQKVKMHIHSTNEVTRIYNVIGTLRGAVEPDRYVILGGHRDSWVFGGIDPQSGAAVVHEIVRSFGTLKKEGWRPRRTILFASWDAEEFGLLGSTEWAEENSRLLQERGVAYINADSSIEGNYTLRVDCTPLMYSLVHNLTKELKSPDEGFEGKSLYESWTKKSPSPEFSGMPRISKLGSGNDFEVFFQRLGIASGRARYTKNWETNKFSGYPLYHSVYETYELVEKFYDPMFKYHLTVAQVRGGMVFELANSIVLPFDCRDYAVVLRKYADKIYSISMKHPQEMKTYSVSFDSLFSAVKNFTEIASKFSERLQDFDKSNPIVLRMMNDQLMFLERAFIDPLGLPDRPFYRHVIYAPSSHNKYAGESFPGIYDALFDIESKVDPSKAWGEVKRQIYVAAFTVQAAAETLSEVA
Experimental: The cell binding behavior of the ^225Ac-labeled, 4-(p-iodophenyl)butyrate-containing PSMA radioconjugates [^225Ac]Ac-mcp-M-alb-PSMA and [^225Ac]Ac-mcp-D-alb-PSMA was analyzed in saturation binding studies using PSMA-positive LNCaP cells.
Figure 2 Saturation binding curves for (A) [^225Ac]Ac-mcp-M-alb-PSMA and (B) [^225Ac]Ac-mcp-D-alb-PSMA. Nonspecific binding was determined in the presence of 500 µM unlabeled PSMA-617. Specific binding was calculated as the difference between total and nonspecific binding (n = 3 for each data point).
Saturation binding studies to determine the equilibrium dissociation constants (KD) and the maximum binding capacities (Bmax) were performed as described elsewhere. In short, 30000 LNCaP cells were seeded in 48-well microplates (Greiner Bio-One GmbH, Frickenhausen, Germany) and cultivated for 48 h to allow cell adhesion and growth. During the experiment, cells were kept on ice and all reagents were added ice-cold. The cell culture medium was replaced by PBS (200 µL/well) and the microplates were preincubated for 30 min at 4 °C. The ^225Ac-radioconjugates were added to the wells in a volume of 200 µL at different concentrations (15 pM to 500 nM). The nonspecific binding was assessed in parallel by blocking the LNCaP cells with a 1000-fold excess of unlabeled PSMA-617. After incubation of the microplates for 90 min on ice, the cells were washed three times with ice-cold PBS. The cells were lysed in 0.1 M NaOH containing 1% (w/v) sodium dodecyl sulfate. The activity of cell lysates was measured using an automatic gamma counter (Hidex Deutschland Vertrieb GmbH, Mainz, Germany).

[4] = tested on: LNCaP cells; test: Clonogenic survival assay; assay type: cell-based, human; conditions: for inhibition of colony formation: 1 h exposure; for EC50 for 1 h treatment: clonogenic survival of LNCaP cells, 95% confidence interval in brackets
Experimental: Figure 3 Clonogenic survival of LNCaP cells after treatment with [^225Ac]Ac-mcp-M-alb-PSMA or [^225Ac]Ac-mcp-D-alb-PSMA for (A) 1 h or (B) 4 h, respectively. Cells were exposed to different activity concentrations of 225Ac-labeled PSMA conjugates for the indicated treatment time and thereafter supplemented with fresh medium. Eight days later, colonies formed were stained and counted by digital analysis. Data points represent the mean colony number of three samples, normalized to values obtained for the untreated reference samples.
Colony formation of LNCaP cells upon exposure to increasing activity concentrations of both ^225Ac-radioconjugates was analyzed as previously reported with slight modifications. Briefly, 6000 LNCaP cells were seeded in 6-well microplates (Greiner Bio-One GmbH, Frickenhausen, Germany) and cultivated overnight to allow cell adhesion. The cell culture medium was replaced by serum-free RPMI-1640 medium (2 mL/well) and the microplates were further incubated at 37 °C. After 1 h, five different activity concentrations (0.05, 0.5, 1, 5, and 50 kBq/mL) of the ^225Ac-radioconjugates were added in triplicate. After 1 or 4 h of incubation at 37 °C, the supernatants were replaced by fresh RPMI-1640 medium with 10% FCS (2 mL/well) and plates were incubated at 37 °C for 8 d. Finally, the cell culture medium was discarded and colonies were stained with 0.5% crystal violet in 50% methanol (1 mL/well) for 30 min, after which the plates were rinsed three times with deionized water and subsequently air-dried. The plates were scanned with an Amersham Typhoon 5 Scanner (Cytiva Europe GmbH, Freiburg, Germany) and the colonies were counted using the Image-Quant TL software (Version 8.1, Cytiva Europe GmbH, Freiburg, Germany).

[5] = tested on: LNCaP tumor-bearing SCID mice; assay type: in vivo, mouse
Experimental: Formalin-fixed and paraffin-embedded mouse tissues were cut in 5 µm sections and immunostained with appropriate antibodies according to standard techniques as well as with standard H&E staining. Antigen retrieval was performed in citrate buffer (pH 6) for all primary antibodies: Ki-67 (clone MIB1, DAKO; dilution 1:200), γH2AX (clone JBW301, Millipore; dilution 1:2500) and PSMA (clone YPSMA-1, Abcam; dilution 1:1000). The presence or absence of necrosis and its percentage in the tumor samples were evaluated by experienced pathologist. […] The data were analyzed using Kruskal-Wallis test followed by Dunn post hoc test using GraphPad Prism version 7.05 (GraphPad Software, San Diego, CA, USA).

SMILES | logD [1] | ^225Ac release (decomplexation, radio-TLC) [2] | Bmax [3] | Kd [3] [nM] | inhibition of colony formation ([4]; 0.05 kBq/mL) | inhibition of colony formation ([4]; 0.5 kBq/mL) | EC50 for 1 h treatment [4] | H&E stain of tumor tissue (necrosis) ([5]; 72, 120 and 168 h p.i.) | average γH2AX histoscore, kidney ([5]; mouse, in vivo) | inhibition of colony formation ([4]; 5 kBq/mL) | Ki67 expression in tumor (cellular proliferation) ([5]; compared to untreated controls) | γH2AX staining of tumor tissue (DNA damage) ([5]; compared to untreated controls) | H&E stain of liver tissue (necrosis) ([5]; mouse, in vivo)
O=C(O)CC[C@H](NC(=O)N[C@@H](CCCCNC(=O)[C@H](Cc1ccc2ccccc2c1)NC(=O)[C@H]1CC[C@H](CNC(=O)[C@H](CCCCn2cc(COc3cc(CN4CCOCCOCCN(Cc5cc(OCc6cn(CCCC[C@H](NC(=O)[C@H](CCC(=O)O)NC(=O)CCCc7ccc(I)cc7)C(=O)NC[C@H]7CC[C@H](C(=O)N[C@@H](Cc8ccc9ccccc9c8)C(=O)NCCCC[C@H](NC(=O)N[C@@H](CCC(=O)O)C(=O)O)C(=O)O)CC7)nn6)cc(C(=O)O)n5)CCOCCOCC4)nc(C(=O)O)c3)nn2)NC(=O)[C@H](CCC(=O)O)NC(=O)CCCc2ccc(I)cc2)CC1)C(=O)O)C(=O)O [[^225Ac]Ac-mcp-D-alb-PSMA, metal not drawn] | -1.7 | did not show any ^225Ac release | 1.96 (1.89 to 2.04)^# pmol/mg of protein | 11.6 | about 50% | virtually abrogated clonogenic activity | 0.0519 (0.0353 to 0.0753)^# kBq/mL | necrotic lesions in the group 72 h p.i. | 99 |  |  |  | 
O=C(O)CC[C@H](NC(=O)N[C@@H](CCCCNC(=O)[C@H](Cc1ccc2ccccc2c1)NC(=O)[C@H]1CC[C@H](CNC(=O)[C@H](CCCCn2cc(COc3cc(CN4CCOCCOCCN(Cc5cccc(C(=O)O)n5)CCOCCOCC4)nc(C(=O)O)c3)nn2)NC(=O)[C@H](CCC(=O)O)NC(=O)CCCc2ccc(I)cc2)CC1)C(=O)O)C(=O)O [[^225Ac]Ac-mcp-M-alb-PSMA, metal not drawn] | -2.4 | did not show any ^225Ac release | 0.46 (0.43 to 0.49)^# pmol/mg of protein | 23.4 |  | about 50% | 0.5233 (0.4010 to 0.6767)^# kBq/mL |  | 62 | almost complete inhibition of colony formation | did not show any significant decrease in proliferation | significant DNA damage in tumor cells | significant necrosis
